Consider 30 compounds from patent publication US20150352108A1, “AMINO-PYRIMIDINE COMPOUNDS AS INHIBITORS OF TBK1 AND/OR IKK EPSILON” (Alzheimer's Institute of America, priority 2009, published 2015).

SMILES strings stand for the structures.

The test addresses T1, IKKε (Homo sapiens, UniProt Q14164).
T1 construct: His-tag; made in house; host or cells: Sf9 insect cells
T1 sequence (Q14164 1-716): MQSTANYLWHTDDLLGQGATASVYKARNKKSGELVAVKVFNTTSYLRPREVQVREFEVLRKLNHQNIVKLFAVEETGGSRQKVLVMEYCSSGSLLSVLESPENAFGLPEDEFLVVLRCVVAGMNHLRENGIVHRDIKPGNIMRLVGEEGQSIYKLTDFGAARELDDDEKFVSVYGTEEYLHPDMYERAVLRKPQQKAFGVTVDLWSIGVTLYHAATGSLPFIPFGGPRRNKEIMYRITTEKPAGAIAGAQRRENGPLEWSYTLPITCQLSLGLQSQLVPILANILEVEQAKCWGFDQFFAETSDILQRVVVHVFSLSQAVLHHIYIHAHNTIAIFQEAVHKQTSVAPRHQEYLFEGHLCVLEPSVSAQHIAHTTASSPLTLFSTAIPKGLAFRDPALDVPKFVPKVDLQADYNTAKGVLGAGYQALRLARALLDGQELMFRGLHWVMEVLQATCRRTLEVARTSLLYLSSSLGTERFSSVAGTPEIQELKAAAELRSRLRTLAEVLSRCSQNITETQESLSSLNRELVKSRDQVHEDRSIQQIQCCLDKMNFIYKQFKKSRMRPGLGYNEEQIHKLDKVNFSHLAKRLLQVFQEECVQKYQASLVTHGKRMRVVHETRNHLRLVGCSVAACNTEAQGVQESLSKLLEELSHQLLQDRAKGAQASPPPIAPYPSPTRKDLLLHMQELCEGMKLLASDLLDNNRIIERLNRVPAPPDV
In words: In-vitro IKKε kinase assay ([γ33]ATP filter-plate). To be noted: text bins; read-out: IC50 for inhibition of the kinase activity of IKKε. The format is biochemical. Put shortly:
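His-tagged IKKε and TBK1 from Sf9 cells were assayed with myelin basic protein or casein and [γ33]ATP at 2×Km ATP (32 μM for IKKε, 60 μM for TBK1). Enzyme was 0.1 or 0.015 μg/ml for IKKε and 0.1 or 0.02 μg/ml for TBK1 (normal/sensitized). Reactions ran 30-45 min, were filter-captured, scintillation-counted, and normalized to DMSO after background subtraction.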
A word on the IC50: it is the concentration that inhibits the measured activity by half. For `CN1CCN(CCOc2ccc(Nc3nccc(-c4cccc(C#N)c4)n3)cc2)CC1` [Example 292, 3-[2-({4-[2-(4-Methylpiperazin-1-yl)ethoxy]phenyl}amino)pyrimidin-4-yl]benzonitrile], the IC50 was 50 to 500 nM. With `COc1ccc(-c2ccnc(Nc3ccccc3)n2)cc1C#N` [compound 299, 2-Methoxy-5-[2-(phenylamino)pyrimidin-4-yl]benzonitrile] the figure was 5 to 50 nM; with `CC(C)(C)c1cccc(Nc2nccc(-c3cccc(C#N)c3)n2)c1` [compound 300], 50 to 500 nM. As for `COc1ccc(-c2ccnc(Nc3cccc(NC(=O)NCCO)c3)n2)cc1C#N` [compound 301, 1-(3-{[4-(3-Cyano-4-methoxyphenyl)pyrimidin-2-yl]amino}phenyl)-3-(2-hydroxyethyl)urea], the figure is 5 to 50 nM; as for `COc1ccc(Nc2ncc(C)c(-c3cccc(C#N)c3)n2)cc1OC` [compound 304, 3-{2-[(3,4-Dimethoxyphenyl)amino]-5-methylpyrimidin-4-yl}benzonitrile], 50 to 500 nM; as for `COc1ccc(-c2ccnc(Nc3cccc(S(=O)(=O)NCCCO)c3)n2)cc1C#N` [compound 306, 3-{[4-(3-Cyano-4-methoxyphenyl)pyrimidin-2-yl]amino}-N-(3-hydroxypropyl) benzenesulfonamide], 50 to 500 nM.

Take `COc1ccc(-c2ccnc(Nc3ccc(S(=O)(=O)N4CCN(C)CC4)cc3)n2)cc1C#N` [compound 308, 2-Methoxy-5-[2-({4-[(4-methylpiperazin-1-yl)sulfonyl]phenyl}amino)pyrimidin-4-yl]benzonitrile]: the IC50 was in the range of 50 to 500 nM. As for `COc1ccc(-c2ccnc(Nc3cccc(S(=O)(=O)NCCO)c3)n2)cc1C#N` [compound 309, 3-{[4-(3-Cyano-4-methoxyphenyl)pyrimidin-2-yl]amino}-N-(2-hydroxyethyl) benzenesulfonamide], the figure is 50 to 500 nM. As for `COc1ccc(-c2ccnc(Nc3cccc(NC(=O)NCCCO)c3)n2)cc1C#N` [compound 310, 1-(3-{[4-(3-Cyano-4-methoxyphenyl)pyrimidin-2-yl]amino}phenyl)-3-(3-hydroxypropyl)urea], the IC50 lay in the range of 5 to 50 nM. With `COc1ccc(Nc2nccc(-c3cccc(C#N)c3)n2)cc1` [compound 319, 3-{2-[(4-Methoxyphenyl)amino]pyrimidin-4-yl}benzonitrile] the figure was 50 to 500 nM. Turning to `COc1ccc(-c2ccnc(Nc3cccc(N)c3)n2)cc1C#N` [compound 321, 5-{2-[(3-Aminophenyl)amino]pyrimidin-4-yl}-2-methoxybenzonitrile], the half-maximal inhibitory concentration (IC50) was in the range of 5 to 50 nM. With `COc1ccc(-c2ccnc(Nc3ccc(S(N)(=O)=O)cc3)n2)cc1C#N` [compound 323, 4-{[4-(3-Cyano-4-methoxyphenyl)pyrimidin-2-yl]amino} benzenesulfonamide] the figure was 5 to 50 nM; with `COc1cc(Nc2nccc(-c3ccc(OC)c(C#N)c3)n2)ccc1C` [compound 325, 2-Methoxy-5-{2-[(3-methoxy-4-methylphenyl)amino]pyrimidin-4-yl}benzonitrile], 50 to 500 nM; with `COc1cc(NC(=O)NC2CCCC2)cc(Nc2nccc(-c3ccc(OC4CCN(C(C)=O)CC4)c(C#N)c3)n2)c1` [compound 333, 1-{3-[(4-{4-[(1-Acetylpiperidin-4-yl)oxy]-3-cyanophenyl}pyrimidin-2-yl)amino]-5-methoxyphenyl}-3-cyclopentylurea], 5 to 50 nM. With `COc1cc(NC(=O)CN(C)C)cc(Nc2nccc(-c3ccc(OC)c(C#N)c3)n2)c1` [compound 336, N-(3-{[4-(3-Cyano-4-methoxyphenyl)pyrimidin-2-yl]amino}-5-methoxyphenyl)-N~2~,N~2~- dimethylglycinamide] the figure was 5 to 50 nM; with `N#Cc1cccc(-c2ccnc(Nc3cccc(Cl)c3)n2)c1` [compound 338, 3-{2-[(3-Chlorophenyl)amino]pyrimidin-4-yl}benzonitrile], 50 to 500 nM; with `COc1ccc(-c2ccnc(Nc3cccc(NC(=O)NC4CCCC4)c3)n2)cc1C#N` [compound 348, 1-(3-{[4-(3-Cyano-4-methoxyphenyl)pyrimidin-2-yl]amino}phenyl)-3-cyclopentylurea], 50 to 500 nM. Turning to `COc1ccc(Nc2nccc(-c3cccc(C#N)c3)n2)cc1OC` [compound 352, 3-{2-[(3,4-Dimethoxyphenyl)amino]pyrimidin-4-yl}benzonitrile], the IC50 is 5 to 50 nM. For the compound `COc1cc(NC(=O)c2ccncc2)cc(Nc2nccc(-c3ccc(OC)c(C#N)c3)n2)c1` [compound 357], the IC50 was 50 to 500 nM. As for `COc1cc(NC(=O)NCCN(C)C)cc(Nc2nccc(-c3ccc(OC)c(C#N)c3)n2)c1` [compound 360, 1-(3-{[4-(3-Cyano-4-methoxyphenyl)pyrimidin-2-yl]amino}-5-methoxyphenyl)-3-[2-(dimethylamino)ethyl]urea], the 50% inhibitory concentration (IC50) lay within 50 to 500 nM. As for `COc1cc(NC(=O)C2CCCC2)cc(Nc2nccc(-c3ccc(OC)c(C#N)c3)n2)c1` [compound 362, N-(3-{[4-(3-Cyano-4-methoxyphenyl)pyrimidin-2-yl]amino}-5-methoxyphenyl) cyclopentane-carboxamide], the figure is 5 to 50 nM. As for `COc1cc(NC(=O)Nc2ccccc2)cc(Nc2nccc(-c3ccc(OC)c(C#N)c3)n2)c1` [compound 364, 1-(3-{[4-(3-Cyano-4-methoxyphenyl)pyrimidin-2-yl]amino}-5-methoxyphenyl)-3-phenylurea], the figure is 5 to 50 nM; as for `COc1cc(NC(=O)c2ccccn2)cc(Nc2nccc(-c3ccc(OC)c(C#N)c3)n2)c1` [compound 365], 50 to 500 nM; as for `CN(C)c1cccc(Nc2nccc(-c3cccc(C#N)c3)n2)c1` [compound 379, 3-(2-{[3-(Dimethylamino)phenyl]amino}pyrimidin-4-yl)benzonitrile], 50 to 500 nM. As for `COc1cc(Nc2nccc(-c3ccc(OC)c(C#N)c3)n2)cc(C(=O)N2CC[C@@H](O)C2)c1` [compound 382, 5-{2-[(3-{[(3R)-3-Hydroxypyrrolidin-1-yl]carbonyl}-5-methoxyphenyl)amino]pyrimidin-4-yl}-2-methoxybenzonitrile], the figure is 50 to 500 nM; as for `COc1ccc(-c2ccnc(Nc3ccc(S(=O)(=O)NCCN(C)C)c(OC)c3)n2)cc1C#N` [compound 384], 5 to 50 nM.

On to `N#Cc1cccc(-c2ccnc(Nc3ccc(OCC(=O)N4CCOCC4)cc3)n2)c1` [compound 386, 3-[2-({4-[2-(Morpholin-4-yl)-2-oxoethoxy]phenyl}amino)pyrimidin-4-yl]benzonitrile], for which the IC50 fell in the range of 50 to 500 nM. As for `COc1cc(NC(=O)NC2CCN(C)CC2)cc(Nc2nccc(-c3ccc(OC)c(C#N)c3)n2)c1` [compound 388], the figure is 50 to 500 nM; as for `COc1cc(NC(=O)NCCCNC(C)=O)cc(Nc2nccc(-c3ccc(OC)c(C#N)c3)n2)c1` [compound 391, N-(3-{[(3-{[4-(3-Cyano-4-methoxyphenyl)pyrimidin-2-yl]amino}-5-methoxyphenyl)carbamoyl]amino}propyl) acetamide], 50 to 500 nM; as for `COc1cc(Nc2nccc(-c3ccc(OC4CCNCC4)c(C#N)c3)n2)ccc1S(=O)(=O)NCCCN(C)C` [compound 398], 50 to 500 nM.
